Laboratory results: US20260062387A1, “SALT-INDUCIBLE KINASE INHIBITOR COMPOUND AND PHARMACEUTICAL COMPOSITION INCLUDING THE SAME” (MITSUBISHI TANABE PHARMA CORPORATION, priority 2023, published 2026)

Assays:
Assay type in all cases: biochemical
GST-tagged SIK2 = GST-tagged SIK2 (Homo sapiens (Human), UniProt Q9H0K1); assay: SIK2 inhibition test (ADP-Glo Max Assay); details: enzyme 3 nM, AMARA Peptide 200 μM, ATP 1 mM, 2 hours room temperature
Protocol: (§1) The compounds described in Examples above were used in the SIK1, SIK2, and SIK3 inhibition test.
(§2) The inhibitory activity of the compound for SIK1, SIK2, and SIK3 enzymes was assayed by measuring the amount of ADP, an enzyme reaction product, with ADP-Glo™ Max Assay (Promega). Enzymes, specifically, GST-tagged SIK1 (Carna Biosciences, Inc.), GST-tagged SIK2 (Carna Biosciences, Inc.), and GST-tagged SIK3 (SignalChem) were prepared in a reaction buffer (15 mM tris-hydrochloric acid buffer (pH 7.5), 0.001% Triton X-100, 0.01% BSA) so that the final concentration would be 20 nM, 3 nM, and 100 nM. Enzyme solutions were thus formed. In a reaction buffer, AMARA Peptide (SignalChem) as a substrate with a final concentration of 200 μM (SIK1, SIK2) or 100 μM (SIK3), ATP (Promega) with a final concentration of 1 mM, and magnesium chloride with a final concentration of 5 mM were prepared. Substrate solutions were thus formed. The enzyme solution, the substrate solution, and a DMSO solution of a concentration of the test compound were mixed together and reacted at room temperature for 2 hours. After the reaction, ADP-Glo™ Reagent (Promega) was added, and the reaction was performed at room temperature for 30 minutes. Subsequently, ADP-Glo™ Max Detection Reagent (Promega) was added, and the reaction was performed at room temperature for 30 minutes. The emission by the luciferase reaction was measured with PHERAstar FSX (BMG LABTECH).
(§3) The inhibitory ratio (%) was calculated by: % Inhibition={1−(intensity of sample−intensity of blank (no enzyme solution added))/(intensity of control (DMSO alone)−intensity of blank)}×100. The inhibitory concentration IC50 was calculated based on 16 data values obtained in the concentration response test.

GST-tagged SIK1 = GST-tagged SIK1 (Homo sapiens (Human), UniProt P57059); assay: SIK1 inhibition test (ADP-Glo Max Assay); details: enzyme 20 nM, AMARA Peptide 200 μM, ATP 1 mM, 2 hours room temperature
GST-tagged SIK1, sequence (P57059 whole entry): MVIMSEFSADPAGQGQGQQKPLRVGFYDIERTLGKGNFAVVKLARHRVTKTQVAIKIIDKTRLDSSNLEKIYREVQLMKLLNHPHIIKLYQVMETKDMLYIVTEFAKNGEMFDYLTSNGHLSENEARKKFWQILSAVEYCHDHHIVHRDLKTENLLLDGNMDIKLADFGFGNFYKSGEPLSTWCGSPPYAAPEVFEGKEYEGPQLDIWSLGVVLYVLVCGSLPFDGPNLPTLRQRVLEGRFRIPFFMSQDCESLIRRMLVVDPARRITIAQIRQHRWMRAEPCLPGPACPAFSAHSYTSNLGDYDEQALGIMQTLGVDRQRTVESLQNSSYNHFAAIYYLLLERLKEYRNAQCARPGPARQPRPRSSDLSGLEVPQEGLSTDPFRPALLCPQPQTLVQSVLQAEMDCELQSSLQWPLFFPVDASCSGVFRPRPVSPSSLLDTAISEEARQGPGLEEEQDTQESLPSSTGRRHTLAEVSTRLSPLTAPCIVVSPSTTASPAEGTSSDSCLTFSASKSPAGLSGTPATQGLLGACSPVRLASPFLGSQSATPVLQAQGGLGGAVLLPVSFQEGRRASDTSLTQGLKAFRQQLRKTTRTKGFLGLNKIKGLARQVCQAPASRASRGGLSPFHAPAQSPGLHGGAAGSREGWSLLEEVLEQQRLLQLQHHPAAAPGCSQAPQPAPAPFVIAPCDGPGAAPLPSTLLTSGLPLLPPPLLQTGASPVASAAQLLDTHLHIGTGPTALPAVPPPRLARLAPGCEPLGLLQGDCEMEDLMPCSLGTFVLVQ
Protocol: as §1, §2, §3

GST-tagged SIK3 = GST-tagged SIK3 (Homo sapiens (Human), UniProt Q9Y2K2); assay: SIK3 inhibition test (ADP-Glo Max Assay); details: enzyme 100 nM, AMARA Peptide 100 μM, ATP 1 mM, 2 hours room temperature
GST-tagged SIK3, sequence (Q9Y2K2 whole entry): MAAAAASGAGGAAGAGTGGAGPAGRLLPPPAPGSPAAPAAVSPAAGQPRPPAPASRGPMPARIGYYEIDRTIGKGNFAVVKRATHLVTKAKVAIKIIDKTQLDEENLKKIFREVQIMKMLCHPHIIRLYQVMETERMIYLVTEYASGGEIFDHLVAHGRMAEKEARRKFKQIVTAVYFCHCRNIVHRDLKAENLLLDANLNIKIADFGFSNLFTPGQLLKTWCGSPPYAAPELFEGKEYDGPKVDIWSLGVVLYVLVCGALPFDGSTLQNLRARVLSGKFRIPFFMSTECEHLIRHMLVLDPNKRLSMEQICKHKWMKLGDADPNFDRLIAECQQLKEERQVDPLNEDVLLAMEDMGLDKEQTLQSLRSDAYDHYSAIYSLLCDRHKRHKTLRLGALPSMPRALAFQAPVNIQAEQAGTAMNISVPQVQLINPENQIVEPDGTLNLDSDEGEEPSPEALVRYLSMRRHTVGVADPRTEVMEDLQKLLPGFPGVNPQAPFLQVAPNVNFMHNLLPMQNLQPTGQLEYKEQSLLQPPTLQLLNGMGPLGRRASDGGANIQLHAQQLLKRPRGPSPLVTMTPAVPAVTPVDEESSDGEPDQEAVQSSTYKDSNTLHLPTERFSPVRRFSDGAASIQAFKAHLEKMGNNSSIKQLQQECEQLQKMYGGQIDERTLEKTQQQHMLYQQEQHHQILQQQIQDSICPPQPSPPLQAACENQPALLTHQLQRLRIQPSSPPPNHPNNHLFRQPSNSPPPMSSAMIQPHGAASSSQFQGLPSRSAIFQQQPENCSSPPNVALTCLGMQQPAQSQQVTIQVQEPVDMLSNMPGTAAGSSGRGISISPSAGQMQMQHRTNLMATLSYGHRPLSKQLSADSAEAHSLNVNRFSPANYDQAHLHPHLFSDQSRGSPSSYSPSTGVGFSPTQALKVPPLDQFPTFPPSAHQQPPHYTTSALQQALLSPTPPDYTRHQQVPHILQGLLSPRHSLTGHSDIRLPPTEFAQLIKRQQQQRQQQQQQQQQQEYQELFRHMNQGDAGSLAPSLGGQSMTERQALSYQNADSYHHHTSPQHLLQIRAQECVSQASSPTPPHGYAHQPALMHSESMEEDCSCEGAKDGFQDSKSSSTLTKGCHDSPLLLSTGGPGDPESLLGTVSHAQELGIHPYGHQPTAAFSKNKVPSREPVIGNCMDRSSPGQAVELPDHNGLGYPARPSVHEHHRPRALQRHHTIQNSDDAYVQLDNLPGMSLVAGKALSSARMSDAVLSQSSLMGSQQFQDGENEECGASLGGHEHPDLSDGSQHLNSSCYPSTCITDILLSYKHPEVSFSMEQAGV
Protocol: as §1, §2, §3

GST-tagged SIK2, sequence (Q9H0K1 whole entry): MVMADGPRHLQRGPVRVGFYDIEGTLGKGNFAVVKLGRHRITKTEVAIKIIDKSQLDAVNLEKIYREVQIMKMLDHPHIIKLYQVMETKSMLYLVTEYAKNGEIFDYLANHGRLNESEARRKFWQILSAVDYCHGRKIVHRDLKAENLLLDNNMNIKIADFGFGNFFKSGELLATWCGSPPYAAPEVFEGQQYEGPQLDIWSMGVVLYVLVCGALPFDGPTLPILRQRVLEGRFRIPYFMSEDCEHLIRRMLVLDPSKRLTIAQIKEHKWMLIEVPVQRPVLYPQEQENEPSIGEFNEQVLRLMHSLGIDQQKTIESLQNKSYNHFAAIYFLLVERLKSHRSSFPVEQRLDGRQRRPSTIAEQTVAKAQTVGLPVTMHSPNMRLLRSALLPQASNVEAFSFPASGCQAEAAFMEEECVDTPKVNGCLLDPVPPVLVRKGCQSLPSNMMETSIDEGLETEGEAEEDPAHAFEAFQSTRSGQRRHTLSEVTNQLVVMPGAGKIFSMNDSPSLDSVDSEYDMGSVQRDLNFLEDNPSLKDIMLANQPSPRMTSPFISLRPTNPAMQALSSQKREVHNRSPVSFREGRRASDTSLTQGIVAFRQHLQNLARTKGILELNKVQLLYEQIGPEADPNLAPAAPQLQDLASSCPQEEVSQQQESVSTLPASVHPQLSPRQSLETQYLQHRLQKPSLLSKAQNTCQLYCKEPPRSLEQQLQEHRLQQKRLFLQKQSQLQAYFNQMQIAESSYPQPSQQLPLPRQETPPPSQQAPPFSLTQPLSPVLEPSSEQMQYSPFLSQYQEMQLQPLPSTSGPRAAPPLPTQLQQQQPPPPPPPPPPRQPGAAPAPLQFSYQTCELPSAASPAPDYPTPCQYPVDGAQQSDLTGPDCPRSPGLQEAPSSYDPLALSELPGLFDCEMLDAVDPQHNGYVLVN

IC50 (GST-tagged SIK2) [nM]	IC50 (GST-tagged SIK1) [nM]	IC50 (GST-tagged SIK3) [nM]	Structure (SMILES)
7.3	13.8	6.3	COc1cc(-c2c3c(C#N)cc(-c4cnn(C)c4)cc3nn2C)cc(OC(F)F)c1C(=O)NCC1CC1(F)F (stereo not drawn) [Example 10]
7	12.4	7	COc1cc(-c2c3c(C#N)cc(-c4cnn(C)c4)cc3nn2C)cc(OC(F)F)c1C(=O)NCC1(F)CC1 [Example 12, 4-[4-cyano-2-methyl-6-(1-methylpyrazol-4-yl)indazol-3-yl]-2-(difluoromethoxy)-N-[(1-fluorocyclopropyl)methyl]-6-methoxybenzamide]
3.1	1.4	7	CCn1cc(-c2cc(C#N)c3c(-c4cc(OC)c(C(=O)N[C@@H]5C[C@@H]5F)c(OC(F)F)c4)n(C)nc3c2)cn1 [Example 18, 4-[4-cyano-6-(1-ethylpyrazol-4-yl)-2-methylindazol-3-yl]-2-(difluoromethoxy)-N-[(1R,2S)-2-fluorocyclopropyl]-6-methoxybenzamide]
1.3	2.5	8.7	COc1cc(-c2c3c(C#N)cc(-c4cnn(CCN(C)C)c4)cc3nn2C)cc(OC(F)F)c1C(=O)N[C@@H]1C[C@@H]1F [Example 19, 4-[4-cyano-6-[1-[2-(dimethylamino)ethyl]pyrazol-4-yl]-2-methylindazol-3-yl]-2-(difluoromethoxy)-N-[(1R,2S)-2-fluorocyclopropyl]-6-methoxybenzamide]
5.8	4.4	13.7	COc1cc(-c2c3c(C#N)cc(-c4cnn(C(C)(C)C)c4)cc3nn2C)cc(OC(F)F)c1C(=O)N[C@@H]1C[C@@H]1F [Example 20, 4-[6-(1-tert-butylpyrazol-4-yl)-4-cyano-2-methylindazol-3-yl]-2-(difluoromethoxy)-N-[(1R,2S)-2-fluorocyclopropyl]-6-methoxybenzamide]
5.6	16.9	4	COc1cc(-c2c3c(C#N)cc(-c4cc(C)ns4)cc3nn2C)cc(OC(F)F)c1C(=O)N[C@@H]1C[C@@H]1F [Example 21, 4-[4-cyano-2-methyl-6-(3-methyl-1,2-thiazol-5-yl)indazol-3-yl]-2-(difluoromethoxy)-N-[(1R,2S)-2-fluorocyclopropyl]-6-methoxybenzamide]
3.2	2	7.7	COc1cc(-c2c3c(C#N)cc(-c4cnn(C5CCOC5)c4)cc3nn2C)cc(OC(F)F)c1C(=O)N[C@@H]1C[C@@H]1F (stereo partly drawn) [Example 22, 4-[4-cyano-2-methyl-6-[1-(oxolan-3-yl)pyrazol-4-yl]indazol-3-yl]-2-(difluoromethoxy)-N-[(1R,2S)-2-fluorocyclopropyl]-6-methoxybenzamide]
2.5	2.1	5	COc1cc(-c2c3c(C#N)cc(-c4cnn(C)c4)cc3nn2C)cc(OC(F)F)c1C(=O)N[C@@H]1CC1(F)F [Example 23, 4-[4-cyano-2-methyl-6-(1-methylpyrazol-4-yl)indazol-3-yl]-N-[(1R)-2,2-difluorocyclopropyl]-2-(difluoromethoxy)-6-methoxybenzamide]
6.5	6.6	11.8	COc1cc(-c2c3c(C#N)cc(-c4cc[nH]n4)cc3nn2C)cc(OC(F)F)c1C(=O)N[C@@H]1C[C@@H]1F [Example 24, 4-[4-cyano-2-methyl-6-(1H-pyrazol-3-yl)indazol-3-yl]-2-(difluoromethoxy)-N-[(1R,2S)-2-fluorocyclopropyl]-6-methoxybenzamide]

Further lines, the compound ahead of its results:

Structure (SMILES)	IC50 (GST-tagged SIK2) [nM]	IC50 (GST-tagged SIK1) [nM]	IC50 (GST-tagged SIK3) [nM]
COc1cc(-c2c3c(C#N)cc(-c4cnn(C)c4)cc3nn2C)cc(OC(F)F)c1C(=O)N1CC(C)(C(F)F)C1 [Example 8, 3-[3-(difluoromethoxy)-4-[3-(difluoromethyl)-3-methylazetidin-1-carbonyl]-5-methoxyphenyl]-2-methyl-6-(1-methylpyrazol-4-yl)indazole-4-carbonitrile]	9.7	7.2	5.8
COc1cc(-c2c3c(C#N)cc(-c4cnn(C)c4)cc3nn2C)cc(OC(F)F)c1C(=O)N1CC(OC(F)F)C1 [Example 9, 3-[3-(difluoromethoxy)-4-[3-(difluoromethoxy)azetidine-1-carbonyl]-5-methoxyphenyl]-2-methyl-6-(1-methylpyrazol-4-yl)indazole-4-carbonitrile]	12.2	16.2	10
COc1cc(-c2c3c(C(F)F)cc(-c4cnn(C)c4)cc3nn2C)cc(OC(F)F)c1C(=O)N[C@@H]1CC1(F)F [Example 11, N-[(1R)-2,2-difluorocyclopropyl]-2-(difluoromethoxy)-4-[4-(difluoromethyl)-2-methyl-6-(1-methylpyrazol-4-yl)indazol-3-yl]-6-methoxybenzamide]	12.3	9.8	2.4
COc1cc(-c2c3c(OC)cc(-c4cnn(C)c4)cc3nn2C)cc(OC(F)F)c1C(=O)N1CC(O)(C(F)(F)F)C1 [Example 13, [2-(difluoromethoxy)-6-methoxy-4-[4-methoxy-2-methyl-6-(1-methylpyrazol-4-yl)indazol-3-yl]phenyl]-[3-hydroxy-3-(trifluoromethyl)azetidin-1-yl]methanone]	7.2	4.6	3.8
COc1cc(-c2c3c(OC(F)F)cc(-c4cnn(C)c4)cc3nn2C)cc(OC(F)F)c1C(=O)N1CC(O)(C(F)(F)F)C1 [Example 14, [2-(difluoromethoxy)-4-[4-(difluoromethoxy)-2-methyl-6-(1-methylpyrazol-4-yl)indazol-3-yl]-6-methoxyphenyl]-[3-hydroxy-3-(trifluoromethyl)azetidin-1-yl]methanone]	8.8	3.6	2.4
CCn1cc(-c2cc(C#N)c3c(-c4cc(OC)c(C(=O)N5CC(O)(C(F)(F)F)C5)c(OC(F)F)c4)n(C)nc3c2)cn1 [Example 15, 3-[3-(difluoromethoxy)-4-[3-hydroxy-3-(trifluoromethyl)azetidin-1-carbonyl]-5-methoxyphenyl]-6-(1-ethylpyrazol-4-yl)-2-methylindazole-4-carbonitrile]	10.3	9.2	1.4
COc1cc(-c2c3c(C#N)cc(-c4cnn(CC(C)(C)O)c4)cc3nn2C)cc(OC(F)F)c1C(=O)N1CC(O)(C(F)(F)F)C1 [Example 16]	13.8	8.7	3.2
COc1cc(-c2c3c(C#N)cc(-c4cnn(CC(=O)N(C)C)c4)cc3nn2C)cc(OC(F)F)c1C(=O)N1CC(O)(C(F)(F)F)C1 [Example 17, 2-[4-[4-cyano-3-[3-(difluoromethoxy)-4-[3-hydroxy-3-(trifluoromethyl)azetidin-1-carbonyl]-5-methoxyphenyl]-2-methylindazol-6-yl]pyrazol-1-yl]-N,N-dimethylacetamide]	8.5	5.4	7.1
COc1cc(-c2c3c(C#N)cc(-c4cnn(C)c4)cc3nn2C)cc(OC(F)F)c1C(=O)N1CC(O)(C(F)F)C1 [Example 25, 3-[3-(difluoromethoxy)-4-[3-(difluoromethyl)-3-hydroxyazetidin-1-carbonyl]-5-methoxyphenyl]-2-methyl-6-(1-methylpyrazol-4-yl)indazole-4-carbonitrile]	10.5	9.6	12.8
COc1cc(-c2c3c(OCC4COC4)cc(-c4cnn(C)c4)cc3nn2C)cc(OC(F)F)c1C(=O)N1CC(O)(C(F)(F)F)C1 [Example 26, [2-(difluoromethoxy)-6-methoxy-4-[2-methyl-6-(1-methylpyrazol-4-yl)-4-(oxetan-3-ylmethoxy)indazol-3-yl]phenyl]-[3-hydroxy-3-(trifluoromethyl)azetidin-1-yl]methanone]	4.3	7.1	11.2
COc1cc(-c2c3c(OCC4CCC4)cc(-c4cnn(C)c4)cc3nn2C)cc(OC(F)F)c1C(=O)N1CC(O)(C(F)(F)F)C1 [Example 27, [4-[4-(cyclobutylmethoxy)-2-methyl-6-(1-methylpyrazol-4-yl)indazol-3-yl]-2-(difluoromethoxy)-6-methoxyphenyl]-[3-hydroxy-3-(trifluoromethyl)azetidin-1-yl]methanone]	12.7	13.7	16
COc1cc(-c2c3c(OCCCO)cc(-c4cnn(C)c4)cc3nn2C)cc(OC(F)F)c1C(=O)N1CC(O)(C(F)(F)F)C1 [Example 28, [2-(difluoromethoxy)-4-[4-(3-hydroxypropoxy)-2-methyl-6-(1-methylpyrazol-4-yl)indazol-3-yl]-6-methoxyphenyl]-[3-Hydroxy-3-(trifluoromethyl)azetidin-1-yl]methanone]	4.7	7.3	13.6
